The results in this text go back to publication PMC5328764 (Physiological Reports, 2017).

Where only a bound is given, the exact number is not on record here.

Data set [1] has as its system healthy volunteers. Put plainly: Plasma pancreatic polypeptide (PP) after s.c. injection (radioimmunoassay). The class given is in vivo, human. To be noted: fasting healthy volunteers; s.c. GLP‐1 1.5 nmol/kg; due to excursions in a subset of participants. The text has this:
(§1) Intravenous access was then established. […] Baseline measurements were made twice during the resting period.

Data set [2] has as its system healthy volunteers. The data set can be described thus: Doppler ultrasound blood flow in superior mesenteric artery, celiac trunk and renal artery (RI, TAMV). The class given is in vivo, human. Particulars: healthy volunteers n = 8, s.c. GLP‐1 and GLP‐1 9–36amide 1.5 nmol/kg, exenatide 10 μg, 0–120 min.
Excerpt: as §1

Data set [3] concerns healthy volunteers. Put plainly: Cardiovascular measurements by task force monitor (heart rate, blood pressure, cardiac output, stroke volume). Type of data set: in vivo, human. Particulars: for Effect on heart rate (in words): s.c. GLP‐1 and GLP‐1 9–36amide 1.5 nmol/kg, exenatide 10 μg, 0–120 min, two‐way ANOVA, Tukey post hoc. The procedure: Cardiac parameters were continuously measured from time −15 to 120 min. The task force monitor (TFM; CN Systems, Graz, Austria) continuously measures the heart rate, blood pressure (by finger plethysmography), cardiac output (by impedance cardiography), and calculates stroke volume (SV). The continuous, beat‐to‐beat measuring of blood pressure was supplemented with the conventional noninvasive oscillometric blood pressure measurement. […] This was done to eliminate brief or short‐lasting changes in cardiac parameters due to accidental movement of the volunteer or slight disturbance during scanning.
as §1

Data set [4] is described as follows: Plasma concentrations of the test substances by radioimmunoassay after s.c. injection. Particulars: eight healthy volunteers.
Data set [5] deals with healthy volunteers. The data set can be described thus: Plasma glucose after s.c. injection (glucose oxidase method). Type of data set: in vivo, human. The procedure: Plasma glucose was measured by the glucose oxidase method using a glucose analyzer (Yellow Springs Instrument, YSI Inc., Yellow Springs, OH).
as §1

Data set [6] deals with healthy volunteers. Put plainly: Serum insulin and C‐peptide after s.c. injection (ECLIA). Type of data set: in vivo, human. To be noted: fasting healthy volunteers n = 8; for Effect on insulin and C‐peptide (in words): s.c. 1.5 nmol/kg, 0–120 min. The procedure: Plasma insulin and C‐peptide levels were measured on a Cobas® 8000, e602 module (Roche Diagnostics GmbH, Mannheim) using, respectively, Cobas Insulin reagents and Cobas Insulin Calibrator, and Cobas C‐Peptide reagents and Cobas C‐Peptide Calibrator. The Cobas module employs a sandwich electro‐chemiluminescense immunoassay (ECLIA).
as §1
Analyses of normally distributed data were conducted by two‐way ANOVA followed by Tukey post hoc testing if the ANOVA indicated significant differences between the study days.

[7] abbreviates: healthy volunteers n = 8, supine.

Regarding `CC[C@H](C)[C@H](NC(=O)[C@H](Cc1ccccc1)NC(=O)[C@H](CCC(=O)O)NC(=O)[C@H](CCCCN)NC(=O)[C@H](C)NC(=O)[C@H](C)NC(=O)[C@H](CCC(N)=O)NC(=O)CNC(=O)[C@H](CCC(=O)O)NC(=O)[C@H](CC(C)C)NC(=O)[C@H](Cc1ccc(O)cc1)NC(=O)[C@H](CO)NC(=O)[C@H](CO)NC(=O)[C@@H](NC(=O)[C@H](CC(=O)O)NC(=O)[C@H](CO)NC(=O)[C@@H](NC(=O)[C@H](Cc1ccccc1)NC(=O)[C@@H](NC(=O)CNC(=O)[C@H](CCC(=O)O)NC(=O)[C@H](C)NC(=O)[C@@H](N)Cc1c[nH]cn1)[C@@H](C)O)[C@@H](C)O)C(C)C)C(=O)N[C@@H](C)C(=O)N[C@@H](Cc1c[nH]c2ccccc12)C(=O)N[C@@H](CC(C)C)C(=O)N[C@H](C(=O)N[C@@H](CCCCN)C(=O)NCC(=O)N[C@@H](CCCNC(=N)N)C(N)=O)C(C)C` [GLP‐1, glucagon‐like peptide‐1], the “Effect on plasma pancreatic polypeptide (PP) (in words)” value in the data set on healthy volunteers [1] is recorded as “mean PP levels rose late”. The “Changes in blood flow parameters in the mesenteric or renal arteries” value with healthy volunteers [2] is recorded as “Neither GLP‐1, GLP‐1_9–36 amide, exenatide nor saline elicited any changes in blood flow parameters”. In the data set on healthy volunteers [3] (healthy volunteers n = 8, supine, s.c. GLP‐1 1.5 nmol/kg), the “Time of peak heart rate increase” value came out at 30 min. In addition, the “Maximum increase in heart rate” value in the data set with healthy volunteers [3] (healthy volunteers n = 8, supine, s.c. GLP‐1 1.5 nmol/kg, peaking at 30 min) is given as “about 14 beats per min”. Also, in the data set on healthy volunteers [3] (setting [7]), the “Effect on heart rate (in words)” value is “significantly increased heart rate”. In the data set on healthy volunteers [3] (healthy volunteers n = 8, impedance cardiography, 120 min period, on the placebo day decrease by about 1 L/min), the “Effect on cardiac output (in words)” value is on record as “tended to rise”. Moreover, in the data set on healthy volunteers [3] (healthy volunteers n = 8, s.c. GLP‐1 1.5 nmol/kg, lower values at 15 and 30 min), the “Effect on stroke volume (in words)” value is reported as “appeared to fall more”. For the same compound, the “Time at which intact GLP‐1 reached basal levels” value in data set [4] (1.5 nmol/kg GLP‐1 s.c.) is “around 90 min”. The “Total plasma GLP‐1 concentration, peak mean value on the GLP‐1 day” value in data set [4] (1.5 nmol/kg GLP‐1 s.c., total = GLP‐1 7–36amide + 9–36amide, reached within 15 min, still elevated at 120 min, radioimmunoassay, mean) is on record as “around 300 pmol/L”. The “Time of peak or plateau plasma concentration of the injected peptide (exendin‐4 or total GLP‐1 assay)” value in data set [4] (s.c., exenatide 10 μg, GLP‐1 and GLP‐1 9–36amide 1.5 nmol/kg) is on record as not above 15 min. Further, the Plasma glucose nadir with healthy volunteers [5] (fasting healthy volunteers n = 8, s.c. 1.5 nmol/kg, from around 5 mmol/L, nadir at 30 min, mean) was found to be 3.5 mmol/L. The “Time of plasma glucose nadir” value with healthy volunteers [5] (fasting healthy volunteers n = 8, s.c. GLP‐1 1.5 nmol/kg, exenatide 10 μg) was 30 min. In addition, the “Effect on insulin and C‐peptide (in words)” value in the data set with healthy volunteers [6] is listed as “caused a rise in insulin”. The “Time until which C‐peptide levels remained elevated” value in the data set on healthy volunteers [6] (s.c. GLP‐1 1.5 nmol/kg) amounted to 60 min. Besides, the “Time of insulin peak” value in the data set with healthy volunteers [6] (s.c. GLP‐1 1.5 nmol/kg, exenatide 10 μg (for exenatide insulin and C‐peptide)) came out at 15 min.
For GLP‐1_9–36amide, in the data set with healthy volunteers [2], the “Changes in blood flow parameters in the mesenteric or renal arteries” value is reported as “Neither GLP‐1, GLP‐1_9–36 amide, exenatide nor saline elicited any changes in blood flow parameters”. Besides, in the data set on healthy volunteers [3] (setting [7]), the “Effect on heart rate (in words)” value is “remained stable”. The “Time at which GLP‐1 9–36amide concentrations reached near basal levels” value in data set [4] (1.5 nmol/kg GLP‐1 9–36amide s.c.) was found to be 120 min. Also, the “Plasma concentration of the metabolite GLP‐1 9–36amide (total GLP‐1 assay), peak” value in data set [4] (1.5 nmol/kg GLP‐1 9–36amide s.c., at 30 min, radioimmunoassay, mean) was “about 290 pmol/L”. Besides, in the data set on healthy volunteers [5] (fasting healthy volunteers n = 8, s.c. exenatide 10 μg, GLP‐1 9–36amide 1.5 nmol/kg, 0–120 min), the “Effect on plasma glucose (in words)” value was “Neither saline nor the metabolite, GLP‐1_9–36amide influenced plasma glucose levels”. Further, in the data set with healthy volunteers [6], the “Effect on insulin and C‐peptide (in words)” value is “no significant changes”.
